# Values of other authors, collected in patent US8313936B2, “Nucleic acids and polypeptides involved in the production of cryptophycin” (priority 2006, dated 2012).
# Details: assay not specified; U.S. Publication No. 20020065261
compound,measurement,value
COc1ccc(C[C@H]2NC(=O)/C=C/C[C@@H]([C@H](C)[C@H]3O[C@@H]3c3ccccc3)OC(=O)[C@H](CC(C)C)OC(=O)[C@H](C)CNC2=O)cc1Cl [Cryptophycin 1],activity relative to other cryptophycins,the most active natural compound
